# Assay results reported in PubChem BioAssay AID1259407 (Chemical Carcinogenesis Research Information System (CCRIS), 2018).
# Active and inactive are the calls of the source. The rule behind the calls is not given here.
# System: CCRIS mutagenicity, Ames/micronucleus/aberration tests
# Experiment: CCRIS mutagenicity studies
# [1] = Test System: AMES SALMONELLA TYPHIMURIUM, Strain/Indicator: TA98, Metabolic Activation: HAMSTER, LIVER, S-9, AROCLOR 1254 (10%), Method: PREINCUBATION
# [2] = Test System: AMES SALMONELLA TYPHIMURIUM, Strain/Indicator: TA98, Metabolic Activation: NONE, Method: PREINCUBATION
# [3] = Test System: AMES SALMONELLA TYPHIMURIUM, Strain/Indicator: TA98, Metabolic Activation: RAT, LIVER, S-9, AROCLOR 1254 (10%), Method: PREINCUBATION
# [4] = Test System: AMES SALMONELLA TYPHIMURIUM, Strain/Indicator: TA100, Metabolic Activation: HAMSTER, LIVER, S-9, AROCLOR 1254 (10%), Method: PREINCUBATION
# [5] = Test System: AMES SALMONELLA TYPHIMURIUM, Strain/Indicator: TA100, Metabolic Activation: NONE, Method: PREINCUBATION
# [6] = Test System: AMES SALMONELLA TYPHIMURIUM, Strain/Indicator: TA100, Metabolic Activation: RAT, LIVER, S-9, AROCLOR 1254 (10%), Method: PREINCUBATION
# [7] = Test System: AMES SALMONELLA TYPHIMURIUM, Strain/Indicator: TA1535, Metabolic Activation: HAMSTER, LIVER, S-9, AROCLOR 1254 (10%), Method: PREINCUBATION
# [8] = Test System: AMES SALMONELLA TYPHIMURIUM, Strain/Indicator: TA1535, Metabolic Activation: NONE, Method: PREINCUBATION
# [9] = Test System: AMES SALMONELLA TYPHIMURIUM, Strain/Indicator: TA1535, Metabolic Activation: RAT, LIVER, S-9, AROCLOR 1254 (10%), Method: PREINCUBATION
# [10] = Test System: AMES SALMONELLA TYPHIMURIUM, Strain/Indicator: TA1537, Metabolic Activation: HAMSTER, LIVER, S-9, AROCLOR 1254 (10%), Method: PREINCUBATION
# [11] = Test System: AMES SALMONELLA TYPHIMURIUM, Strain/Indicator: TA1537, Metabolic Activation: NONE, Method: PREINCUBATION
# [12] = Test System: AMES SALMONELLA TYPHIMURIUM, Strain/Indicator: TA1537, Metabolic Activation: RAT, LIVER, S-9, AROCLOR 1254 (10%), Method: PREINCUBATION
# [13] = Test System: AMES SALMONELLA TYPHIMURIUM, Strain/Indicator: TA100, Metabolic Activation: NONE, Method: STANDARD PLATE
# [14] = Test System: AMES SALMONELLA TYPHIMURIUM, Strain/Indicator: TA98, Metabolic Activation: NONE, Method: STANDARD PLATE
SMILES,mutagenic call [1],mutagenic call [2],mutagenic call [3],mutagenic call [4],mutagenic call [5],mutagenic call [6],mutagenic call [7],mutagenic call [8],mutagenic call [9],mutagenic call [10],mutagenic call [11],mutagenic call [12],mutagenic call [13],mutagenic call [14],further results
COc1cc(-c2ccc(N/N=C3\C=C(S(=O)(=O)O)c4ccccc4C3=O)c(OC)c2)ccc1N/N=C1/C=C(S(=O)(=O)O)c2ccccc2C1=O,inactive; negative,inactive; negative,inactive; negative,inactive; negative,inactive; negative,inactive; negative,inactive; negative,inactive; negative,inactive; negative,inactive; negative,inactive; negative,inactive; negative,–,–,"mutagenic call (Test System: AMES SALMONELLA TYPHIMURIUM, Strain/Indicator: TA1538, Metabolic Activation: RAT, LIVER, S-9, AROCLOR 1254, Method: STANDARD PLATE): inactive; negative"
COc1ccc([Se]c2ccc(OC)cc2)cc1,–,–,–,–,–,–,–,–,–,–,–,–,active; positive,–,"mutagenic call (Test System: AMES SALMONELLA TYPHIMURIUM, Strain/Indicator: TA97A, Metabolic Activation: NONE, Method: STANDARD PLATE): inactive; negative"
CC(C)=CCc1ccc(O)c2c(=O)c3c(O)c4c(cc3oc12)O[C@H]1OC=C[C@@]41O,–,–,–,–,–,–,–,–,–,–,–,–,active; positive,active; positive,"mutagenic call (Test System: AMES SALMONELLA TYPHIMURIUM, Strain/Indicator: TA98, Metabolic Activation: RAT, LIVER, S-9, AROCLOR 1254, Method: STANDARD PLATE): active; positive; mutagenic call (Test System: AMES SALMONELLA TYPHIMURIUM, Strain/Indicator: TA100, Metabolic Activation: RAT, LIVER, S-9, AROCLOR 1254, Method: STANDARD PLATE): active; positive"
CC(C)(Oc1ccc(C(=O)c2ccc(Cl)cc2)cc1)C(=O)O,–,–,–,–,–,–,–,–,–,–,–,–,inactive; negative,inactive; negative,"mutagenic call (Test System: AMES SALMONELLA TYPHIMURIUM, Strain/Indicator: TA98, Metabolic Activation: RAT, LIVER, S-9, PHENOBARBITAL AND 5,6-BENZOFLAVONE, Method: STANDARD PLATE): inactive; negative; mutagenic call (Test System: AMES SALMONELLA TYPHIMURIUM, Strain/Indicator: TA100, Metabolic Activation: RAT, LIVER, S-9, PHENOBARBITAL AND 5,6-BENZOFLAVONE, Method: STANDARD PLATE): inactive; negative; mutagenic call (Test System: AMES SALMONELLA TYPHIMURIUM, Strain/Indicator: TA1535, Metabolic Activation: NONE, Method: STANDARD PLATE): inactive; negative; mutagenic call (Test System: AMES SALMONELLA TYPHIMURIUM, Strain/Indicator: TA1535, Metabolic Activation: RAT, LIVER, S-9, PHENOBARBITAL AND 5,6-BENZOFLAVONE, Method: STANDARD PLATE): inactive; negative; mutagenic call (Test System: AMES SALMONELLA TYPHIMURIUM, Strain/Indicator: TA1537, Metabolic Activation: NONE, Method: STANDARD PLATE): inactive; negative; mutagenic call (Test System: AMES SALMONELLA TYPHIMURIUM, Strain/Indicator: TA1537, Metabolic Activation: RAT, LIVER, S-9, PHENOBARBITAL AND 5,6-BENZOFLAVONE, Method: STANDARD PLATE): inactive; negative; mutagenic call (Test System: E. COLI, Strain/Indicator: WP2 UVRA, Metabolic Activation: NONE, Method: STANDARD PLATE): inactive; negative; mutagenic call (Test System: E. COLI, Strain/Indicator: WP2 UVRA, Metabolic Activation: RAT, LIVER, S-9, PHENOBARBITAL AND 5,6-BENZOFLAVONE, Method: STANDARD PLATE): inactive; negative"
O=C1OC(c2ccc(O)cc2)(c2ccc(O)cc2)c2ccccc21,inactive; negative,inactive; negative,inactive; negative,inactive; negative,inactive; negative,inactive; negative,inactive; negative,inactive; negative,inactive; negative,inactive; negative,inactive; negative,inactive; negative,–,–,"mutagenic call (End Point: In vivo micronucleus, Test System: Peripheral blood normochromatic erythrocytes, Species: Mouse, Strain/Sex: Haploinsufficient p16(Ink4a)p19(Arf), Route: Oral): active; positive; mutagenic call (End Point: In vivo micronucleus, Test System: Polychromatic erythrocytes, Species: Mouse, Strain/Sex: C57BL/6TacBr-[KO]p53[TSG-p53], Route: Oral): active; positive at all days; mutagenic call (Test System: Syrian hamster embryo cells, Strain/Indicator: HPRT/6-thioguanine, Method: Plate): active; positive"
N#Cc1nn(-c2c(Cl)cc(C(F)(F)F)cc2Cl)c(N)c1S(=O)C(F)(F)F (configuration not stated),–,–,–,–,–,–,–,–,–,–,–,–,–,–,"mutagenic call (End Point: Ames Salmonella typhimurium, Test System: TA98, Metabolic Activation: None, Method: Plate incorporation): inactive; negative; mutagenic call (End Point: Ames Salmonella typhimurium, Test System: TA98, Metabolic Activation: Rat, Liver, S-9, Aroclor 1254, Method: Plate incorporation): inactive; negative; mutagenic call (End Point: Ames Salmonella typhimurium, Test System: TA100, Metabolic Activation: None, Method: Plate incorporation): inactive; negative; mutagenic call (End Point: Ames Salmonella typhimurium, Test System: TA100, Metabolic Activation: Rat, Liver, S-9, Aroclor 1254, Method: Plate incorporation): inactive; negative; mutagenic call (End Point: Ames Salmonella typhimurium, Test System: TA1535, Metabolic Activation: None, Method: Plate incorporation): inactive; negative; mutagenic call (End Point: Ames Salmonella typhimurium, Test System: TA1535, Metabolic Activation: Rat, Liver, S-9, Aroclor 1254, Method: Plate incorporation): inactive; negative; mutagenic call (End Point: Ames Salmonella typhimurium, Test System: TA1537, Metabolic Activation: None, Method: Plate incorporation): inactive; negative; mutagenic call (End Point: Ames Salmonella typhimurium, Test System: TA1537, Metabolic Activation: Rat, Liver, S-9, Aroclor 1254, Method: Plate incorporation): inactive; negative; mutagenic call (End Point: In vitro chromosomal aberrations, Test System: Human lymphocytes (male and female), Metabolic Activation: None): inactive; negative; mutagenic call (End Point: In vitro chromosomal aberrations, Test System: Human lymphocytes (male and female), Metabolic Activation: Rat, Liver, S-9, Aroclor 1254): inactive; negative; mutagenic call (End Point: In vivo micronucleus, Test System: Bone marrow polychromatic erythrocytes, Species: Mouse, Strain/Sex: CD-1/Male and female, Route: Oral): inactive; negative; mutagenic call (Test System: HGPRT mutations, Strain/Indicator: Chinese hamster V79 cells, Metabolic Activation: None): inactive; negative; mutagenic call (Test System: HGPRT mutations, Strain/Indicator: Chinese hamster V79 cells, Metabolic Activation: Rat, Liver, S-9, Aroclor 1254): inactive; negative"
